According to patent publication US20240166645A1, “PYRIDOPYRIMIDINONE DERIVATIVE, PREPARATION METHOD THEREFOR, AND USE THEREOF” (Wuhan Humanwell Innovative Drug Research and Development …, priority 2021, published 2024):

Tests used:
KRAS G12C-SOS1 = KRAS G12C-SOS1 (Homo sapiens (Human), UniProt Q07889); test: Inhibition test of compounds on KRAS G12C::SOS1 binding; conditions: GST-KRAS G12C, His-SOS1
Experimental: The compound to be tested was prepared into a 10 mM stock solution with DMSO, and the compound was serially diluted using 1× test buffer. 0.1 μL of the compound solution with different concentrations was transferred to a 384-well plate. […] 5 μL of His-SOS1 was added to the 384-well plate, centrifuged at 1000 rpm for 1 min, and incubated at room temperature for 15 min.
After incubation, 10 μL of a mixed solution of anti-6his-Tb monoclonal antibody (Cisbio, Cat. No. 61HI2TLA) and anti-GST-XL665 monoclonal antibody (Cisbio, Cat. No. 61GSTXLA) was added to the test well, centrifuged at 1000 rpm for 1 min, and incubated at room temperature for 1 h.
After incubation, the fluorescence signal ratios at 665 nm and 615 nm were read on a multifunctional microplate reader (Perkin Elmer, Envision 2104), and the IC50 values were calculated using Graphpad 5 software.

[1] = Plasma protein binding by equilibrium dialysis, human plasma; assay type: in vitro ADME; conditions: 37° C., read-out: Free fraction in plasma, Human (%)
Experimental: (§1) Plasma protein binding rate of compounds was detected by equilibrium dialysis (HTDialysis, HTD 96b). The compound was prepared into a […] stock solution with DMSO, and then 25-fold diluted with 0.05 M sodium phosphate buffer as a working solution. A blank 96-well plate was taken and preloaded with 380 μL of plasma per well. The plasma was then added with the working solution at 20 μL/well and mixed well, with the compound at a final concentration of 1 μM, containing 0.2% DMSO per well.
(§2) 100 μL of 0.05 M sodium phosphate buffer was added to the reception-side of each dialysis chamber (HTD 96b), and then 100 μL of plasma containing the compound was added to the supply-side. The dialysis chamber was covered with a plastic lid, shaken and incubated at 37° C. for 5 h.
(§3) After incubation, 25 μL of samples were taken from each of the supply-side and the reception-side of the dialysis chamber and placed in the blank 96-well plate. An equal volume of plasma was added to each of the supply-side samples while an equal volume of 0.05 M sodium phosphate buffer was added to each of the reception-side samples and mixed well. The 96-well plate was added with an acetonitrile solution containing internal standard at 200 μL per well, vortexed and shaken at 600 rpm for 10 min, and centrifuged at 5594 g for 15 min (Thermo Multifuge×3R). 50 μL of the supernatant was then transferred to a new 96-well plate, and the samples were mixed with 50 μL of ultra-pure water for LC-MS/MS analysis.
(§4) Plasma protein binding rate and free fraction were calculated using the following formulas: % binding rate=100×([supply-side concentration]5h−[reception-side concentration]5h)/[supply-side concentration]5h. % free fraction=100−% binding rate.

[2] = Plasma protein binding by equilibrium dialysis, mouse plasma; assay type: in vitro ADME; conditions: 37° C., read-out: Free fraction in plasma, Mouse (%)
Experimental: as §1, §2, §3, §4

[3] = test system: ERK phosphorylation level in DLD-1 cells; test: Inhibition of ERK phosphorylation level in DLD-1 cells (intracellular western blot); assay type: cell-based; conditions: Homo sapiens
Experimental: Intracellular western blot quantitative analysis was used to detect the inhibitory level of compounds on ERK phosphorylation in DLD-1 cells.
DLD-1 cells (ATCC, CCL-221) were seeded in a T75 culture flask at 2.5×10^6 cells/flask and cultured in a RPMI 1640 medium containing 10% FBS for 2 days. On day 3, the cells were seeded on a 384-well plate, and cultured overnight at 37° C., 5% CO2. After overnight culture, the plate was added with serially diluted compounds (the final content of DMSO was 0.5%), the negative group was added with DMSO, and incubated in a 37° C., 5% CO2 incubator.
The cells were fixed, washed once with PBS, treated to disrupt membranes, and blocked at room temperature for 1 h. The blocking solution was removed. The plate was added with primary antibody (CST, Cat. No. #4370S), and incubated overnight at 4° C. The plate was washed 3 times with PBST (PBS solution added with 0.05% Tween-20) and soaked for 2 min each time. The plate was added with secondary antibody (LI-COR, Cat. No. 926-32211) and incubated at room temperature in the dark. The plate was washed 3 times with PBST and soaked for 2 min each time. The plate was centrifuged at 1000 rpm for 1 min, scanned on a two-color infrared laser imaging system (Odyssey® CLX) to read the signal.
Relative signal=800-channel signal values/700-channel signal values.
Relative expression level of ERK phosphorylation=(test compound−control compound I)/(DMSO group−control compound I)
(§5) IC50 values were calculated using Graphpad 5 software.

H358 cells = test: Inhibition of 3D cell proliferation (3D CellTiter-Glo); assay type: cell-based; conditions: Homo sapiens, NCI-H358, 168 h, read-out: IC50 (nM), inhibition of 3D proliferation of H358 cells, 7 days
Experimental: H358 cells were seeded in a T75 culture flask and cultured in a RPMI 1640 medium containing 10% FBS for 2 days for subsequent experiments in which the cells would be cultured or seeded on a 384-well plate.
On day 1, the cells were seeded on the 384-well plate, with 40 μL of medium added per well and serially diluted compounds or DMSO added per well, and an additional well without seeded cells but with medium was set up as a blank control. After culture at 37° C., 5% CO2 for 7 days, the plate was added with 3D CellTiter-Glo reagent (Promega, Cat. No. G9683) on day 8, shaken at 320 rpm for 20 min, and left at room temperature for 2 h. Luminescence signals were read on a multifunctional microplate reader. Cell viability inhibition rate was calculated as:
Cell viability inhibition rate=(DMSO group−test compound)/(DMSO group−blank control group)×100%
as §5

[4] = Pharmacokinetic test in mice; assay type: in vivo; conditions: mouse, plasma; male ICR mice, oral gavage, 10 mg/kg
Experimental: Male ICR mice (20 to 25 g) were used and fasted overnight. Three mice were taken and orally administered by gavage (10 mg/kg). Blood was collected before the administration, and at 15 min, 30 min, 1 h, 2 h, 4 h, 8 h and 24 h after the administration. 6,800 g of the blood samples were centrifuged at 2 to 8° C. for 6 min, and plasma was collected and stored at −80° C. The plasma at each time point was taken and added with an acetonitrile solution containing internal standard in 3 to 5 times the amount, vortexed and mixed for 1 min, and centrifuged at 13,000 rpm/min at 4° C. for 10 min. The supernatant was collected, added with water in 3 times the amount, and mixed. An appropriate amount of the mixture was taken for LC-MS/MS analysis. The main pharmacokinetic parameters were analyzed using WinNonlin 7.0 software with non-compartmental model.

[5] = test system: Mia Paca-2 pancreatic cancer; test: Mia Paca-2 pancreatic cancer in vivo efficacy test; parameters: species or system mice
Experimental: (§6) After one week of adaptive feeding of mice, Mia Paca-2 cells in a log phase were resuspended in serum-free DMEM, and then mixed with Matrigel in a ratio of 1:1.1×10^7 Mia Paca-2 cells were inoculated subcutaneously at the right flank at 100 μL per mouse, and tumor growth was observed regularly. When the tumor grew to an average volume of 150 to 200 mm^3, the mice were randomly divided into a model group and an administration group (single drug, in combination with trametinib) based on the tumor size and body weight. The tumor size and body weight were measured and recorded before and during the administration. After the treatment, the tumor size in the model group was compared with that in the administration group to determine the efficacy.

LOVO colorectal cancer = LOVO colorectal cancer in vivo efficacy test; parameters: species or system mice; conditions: 25 mg/kg BID
Experimental: as §6, with “LOVO” for “Mia Paca-2”, “F12K, 5×10^6 LOVO” for “DMEM, and then mixed with Matrigel in a ratio of 1:1.1×10^7 Mia Paca-2”, “group” for “group (single drug, in combination with trametinib)”

[6] = Human liver microsome stability test; assay type: in vitro ADME; conditions: human, human liver microsomes
Experimental: The human liver microsome stability test was performed by incubating the compound and human liver microsomes in vitro. First, the compound to be tested was prepared into a 10 mM stock solution in DMSO solvent, and then the compound was diluted to 0.5 mM with acetonitrile. Human liver microsomes (Corning) were diluted with PBS into a microsome/buffer solution, and the solution was used to dilute 0.5 mM compound into a working solution, in which the concentration of the compound was 1.5 μM, and the concentration of human liver microsomes was 0.75 mg/mL. A deep-well plate was taken, 30 μL of the working solution was added per well, and then 15 μL of pre-heated 6 mM NADPH solution was added thereto to initiate a reaction, and the reaction was incubated at 37° C. At 0, 5, 15, 30 and 45 min of the incubation, 135 μL of acetonitrile was added to the corresponding wells to terminate the reaction. After the reaction was terminated with acetonitrile at the last time point of 45 min, the deep-well plate was vortexed and vibrated for 10 min (600 rpm/min), and then centrifuged for 15 min. After centrifugation, the supernatant was collected, and added with purified water in a ratio of 1:1 to perform LC-MS/MS detection. A ratio of a peak area of compound to a peak area of internal standard at each time point was obtained, and the peak area ratios of the compound at 5, 15, 30 and 45 min were compared with the peak area ratio at 0 min to calculate the remaining percentage of the compound at each time point. T1/2 was calculated by using GraphPad 5 software.

KRAS G12C-SOS1, sequence (Q07889 whole entry, stated change not applied): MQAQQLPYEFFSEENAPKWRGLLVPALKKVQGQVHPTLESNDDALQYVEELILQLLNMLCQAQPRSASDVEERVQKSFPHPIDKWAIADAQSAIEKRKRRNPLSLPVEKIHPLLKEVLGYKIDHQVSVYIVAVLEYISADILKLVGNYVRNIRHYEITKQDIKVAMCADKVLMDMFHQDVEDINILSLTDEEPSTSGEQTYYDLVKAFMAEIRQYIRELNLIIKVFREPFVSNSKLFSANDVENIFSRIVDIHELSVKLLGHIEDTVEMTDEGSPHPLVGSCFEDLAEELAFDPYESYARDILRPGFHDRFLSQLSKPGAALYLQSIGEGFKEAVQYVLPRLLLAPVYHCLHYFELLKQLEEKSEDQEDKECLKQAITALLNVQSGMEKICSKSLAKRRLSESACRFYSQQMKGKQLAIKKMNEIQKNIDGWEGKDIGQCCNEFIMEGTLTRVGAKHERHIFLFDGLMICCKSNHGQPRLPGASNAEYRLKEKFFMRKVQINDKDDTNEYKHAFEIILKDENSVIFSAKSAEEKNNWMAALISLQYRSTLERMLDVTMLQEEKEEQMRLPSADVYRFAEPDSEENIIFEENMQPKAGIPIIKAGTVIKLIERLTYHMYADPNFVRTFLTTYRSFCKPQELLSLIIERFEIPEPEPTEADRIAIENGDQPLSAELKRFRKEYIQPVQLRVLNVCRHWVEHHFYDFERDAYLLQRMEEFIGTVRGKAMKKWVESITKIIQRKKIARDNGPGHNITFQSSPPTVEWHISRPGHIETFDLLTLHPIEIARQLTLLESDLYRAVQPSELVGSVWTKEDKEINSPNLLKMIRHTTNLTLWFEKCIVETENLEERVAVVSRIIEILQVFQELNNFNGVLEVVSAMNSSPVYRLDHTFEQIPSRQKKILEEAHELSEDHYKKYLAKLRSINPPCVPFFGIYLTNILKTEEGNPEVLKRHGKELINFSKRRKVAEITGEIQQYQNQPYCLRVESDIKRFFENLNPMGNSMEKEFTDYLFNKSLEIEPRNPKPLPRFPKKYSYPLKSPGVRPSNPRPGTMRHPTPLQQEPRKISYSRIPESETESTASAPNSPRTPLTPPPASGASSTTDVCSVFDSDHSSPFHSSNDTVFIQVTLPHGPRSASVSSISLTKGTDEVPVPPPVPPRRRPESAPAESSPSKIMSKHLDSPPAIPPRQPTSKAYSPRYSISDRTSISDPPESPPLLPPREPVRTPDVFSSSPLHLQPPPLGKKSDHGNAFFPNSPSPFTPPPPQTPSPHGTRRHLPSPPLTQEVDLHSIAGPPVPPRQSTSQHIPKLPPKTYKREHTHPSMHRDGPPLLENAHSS

Compound	IC50 (KRAS G12C-SOS1) [nM]	fraction unbound at 5 h, 1 µM [1]	fraction unbound at 5 h, 1 µM [2]	IC50 [3] [nM]	IC50 (H358 cells) [nM]	AUC(0-t) [4] [ng·h/mL]	Cmax [4] [ng/mL]	Tmax [4] [h]	half-life [4] [h]	Average tumor weight at the end of the treatment ([5]; Mia Paca-2, 25 mg/kg BID) [g]	Tumor weight inhibition rate (relative to the vehicle group) ([5]; Mia Paca-2, 25 mg/kg BID) [%]	Average tumor weight at the end of the treatment ([5]; Mia Paca-2, 50 mg/kg BID) [g]	Tumor weight inhibition rate (relative to the vehicle group) ([5]; Mia Paca-2, 50 mg/kg BID) [%]	Average tumor weight at the end of the treatment (LOVO colorectal cancer) [g]	Tumor weight inhibition rate (relative to the vehicle group) (LOVO colorectal cancer) [%]	half-life at 1 µM [6] [h]
Cc1nc(N[C@H](C)c2cccc(S(=O)(=O)C(F)F)c2F)c2cn(C3(CF)CC3)c(=O)cc2n1 [Compound I-5, (R)-4-((1-(3-((difluoromethyl)sulfonyl)-2-fluorophenyl)ethyl)amino)-6-(1-(fluoromethyl)cyclopropyl)-2-methylpyrido[4,3-d]pyrimidin-7(6H)-one]	10	0.077	0.114	–	–	–	–	–	–	–	–	–	–	–	–	–
Cc1nc(N[C@H](C)c2cccc(S(F)(F)(F)(F)F)c2)c2cn(C3(C(F)F)CC3)c(=O)cc2n1 [Compound I-23, (R)-6-(1-(difluoromethyl)cyclopropyl)-2-methyl-4-((1-(3-(pentafluorosulfanyl)phenyl)ethyl)amino)pyrido[4,3-d]pyrimidin-7(6H)-one]	4.9	–	–	159	12	44100	4240	2	2.33	0.45	61	0.38	67	0.65	53	–
Cc1nc(N[C@H](C)c2cccc(C(F)(F)F)c2C)c2cn(C3(CF)CC3)c(=O)cc2n1 [Control compound I, reference compound]	–	0.009	0.005	–	–	365	176	0.25	1.35	–	–	–	–	–	–	1.07
